From patent US20110183969A1, “ANTIFUNGAL COMBINATION THERAPY” (priority 2008, published 2011) come the findings set out here.

Each structure is given as a SMILES string. Converted amounts (≈) assume the structure as drawn. Like-named read-outs stand apart in the source and are kept apart here. Where only a bound is given, the exact number is not on record here.

Usually MIC stands for the smallest concentration in the dilution series that meets the test's criterion for growth inhibition.

Holding throughout (assay): MIC (YAG medium)
Common to all, as to format: cell-based

The test system of one assay is Aspergillus flavus. The note with it: Aspergillus flavus, read-out: MIC A. flavus (grade). Here is the method: (§1) Between 1 and 5 mgs of compound were accurately weighed out into a sterile Eppendorf tube. The compound was dissolved in DMSO to give a solution containing 5 mg/mL. Tubes were stored at −20° C. until required.
(§2) On the day of testing thawed solutions were vortex mixed to ensure homogeneity. 30 μL of solution was removed and added to 570 μL of sterile water in a separate sterile Eppendorf The thoroughly mixed solution was used to prepare a series of doubling dilutions in water, in a deep well plate. […] replicate plates were prepared using a Minitrak by aspirating 20 μL from each well into eleven clear polystyrene 96 well plates.
(§3) Spores of Aspergillus spp. (Aspergillus fumigatus [two strains], Aspergillus terreus [two strains], Aspergillus niger and Aspergillus flavus) were harvested from cultures grown on Sabarauds agar for 5 days, and resuspended in PBS/Tween 80 to approx 1×10^7 cfu/mL. Other filamentous fungi (Absidia corymbifera, Fusarium solani, Rhizomucor, Scedosporium spp., Trichophyton spp.), were grown on Sabarauds agar for 2-10 days and spores/hyphae resuspended in PBS/Tween to give approx 1×10^7 cfu/mL. Candida species (Candida albicans, Candida glabrata, Candida krusei, Candida parapsilosis and Candida tropicalis) were grown on Sabarauds agar, cells were harvested from the agar using a sterile loop and resuspended in PBS/Tween 80 to approx 1×10^6 cfu/mL. Each organism suspension was diluted in RPMI medium, containing 2% glucose and 0.135 M MOPS buffer (pH 7.0) to 0.5−2×10^4 cfu/mL for Aspergillus spp. and other filamentous fungi and 0.5-2×10^3 cfu/mL for yeast. 80 μL of an organism suspension was added to each well of the plate containing drug dilutions.
(§4) This produced MIC plates with a drug range 50-0.05 mg/L and organism inocula of 1-2×10^4 cfu/mL for Aspergillus spp. and other filamentous fungi and 1-2×10^3 cfu/mL for yeasts. All plates were incubated for 24-48 hrs at 35° C. Growth was assessed by monitoring the optical density at 485 nm for each well. The MIC of a compound is the lowest drug concentration that inhibits growth of an organism by >80% compared with a drug free control. MICs are recorded as mg/L. Other growth media can be used for susceptibility testing, and the activity of the described compounds can also be assessed in a medium comprising 1% glucose, 1% ammonium chloride and 0.5% yeast extract (YAG medium). To perform MIC tests in this medium, dilutions of compounds are prepared in microtitre plates as described above. Fungal strains to be tested are grown and harvested in an identical manner to that described above, each organism suspension is then diluted in YAG medium to 0.5-2×10^4 cfu/mL for Aspergillus spp. and other filamentous fungi and 0.5-2×10^3 cfu/mL for yeast. 80 μL of an organism suspension was added to each well of the plate containing drug dilutions. This produced MIC plates with a drug range 50-0.05 mg/L and organism inocula of 1-2×10^4 cfu/mL for Aspergillus spp. and other filamentous fungi and 1-2×10^3 cfu/mL for yeasts. All plates were incubated for 24 hrs at 35° C. Growth was assessed by monitoring the optical density at 485 nm for each well. The MIC of a compound is the lowest drug concentration that inhibits growth of an organism by >70% compared with a drug free control. MICs are recorded as mg/L. In cases where the MIC of an organism is […] mg/L the MIC is repeated using a concentration range of 0.5-0.0005 mg/L. MIC tests in YAG medium have more clear-cut endpoints and have slightly lower MICs than those performed in RPMI medium.
(§5) The following organisms were tested: Absidia corymbifera, Aspergillus flavus, Aspergillus fumigatus AF293 and AF210, Aspergillus niger, Aspergillus terreus AT4 and AT49, Candida albicans, Candida glabrata, Candida krusei, Candida parapsilosis, Candida tropicalis, Fusarium solani, Rhizomucor sp., Scedosporium apiospermum, Scedosporium prolificans, Trichophyton mentagrophytes, and Trichophyton rubrum.

The subject of assay [1] is Aspergillus fumigatus AF210. The note with it: Aspergillus fumigatus. The method, then:
as §1, §2, §3, §4, §5

The test system of assay [2] is Aspergillus fumigatus AF293. The note with it: Aspergillus fumigatus. The method, then: as §1, §2, §3, §4, §5
For a further assay, the system named is Aspergillus niger. The note with it: Aspergillus niger, read-out: MIC A. niger (grade). Here is the method: as §1, §2, §3, §4, §5
The next assay concerns Aspergillus terreus AT49. The note with it: Aspergillus terreus. The method, then:
as §1, §2, §3, §4, §5

The next assay concerns Aspergillus terreus AT4. The note with it: Aspergillus terreus. The method, then: as §1, §2, §3, §4, §5
Setting [3] is: YAG medium, MIC banded into grades.
The mark [4] stands for this setting: YAG medium, MIC banded into grades, AF210, read-out: MIC A. fumigatus 210 (grade).
[5] abbreviates: YAG medium, MIC banded into grades, AF293, read-out: MIC A. fumigatus (grade).
Setting [6] is: YAG medium, MIC banded into grades, AT49, read-out: MIC A. terreus 49 (grade).
Where [7] appears, read: YAG medium, MIC banded into grades, AT4, read-out: MIC A. terreus (grade).

Take `O=C1Cc2cc(NC(=O)C(=O)c3c(-c4ccccc4)cc4ccccn34)ccc2N1` [Example 9, 2-Oxo-N-(2-oxo-2,3-dihydro-1H-indol-5-yl)-2-(2-phenyl-indolizin-3-yl)-acetamide]: the MIC in the assay on Aspergillus flavus is over 10 mg/L; in assay [1] (AF210, read-out: MIC A. fumigatus 210 (grade)), over 10 mg/L; in assay [2] (AF293, read-out: MIC A. fumigatus (grade)), over 10 mg/L; in the assay on Aspergillus niger it was over 10 mg/L; in the assay with Aspergillus terreus AT49 (AT49, read-out: MIC A. terreus 49 (grade)), over 10 mg/L; in the assay with Aspergillus terreus AT4 (AT4, read-out: MIC A. terreus (grade)), over 10 mg/L.
In the case of `CCC(CC)N1CCN(c2ccc(NC(=O)C(=O)c3c(-c4ccccc4Cl)cc4ccccn34)cn2)CC1` [Example 10, 2-[2-(2-chloro-phenyl)-indolizin-3-yl]-N-{6-[4-(1-ethyl-propyl)-piperazin-1-yl]-pyridin-3-yl}-2-oxo-acetamide], the MIC (in the assay with Aspergillus flavus (setting [3]); in assay [1] (setting [4]); in assay [2] (setting [5]); in the assay on Aspergillus niger (setting [3]); in the assay on Aspergillus terreus AT49 (setting [6]); in the assay on Aspergillus terreus AT4 (setting [7])) was under 1 mg/L in each case.
`O=C(Nc1ccc(C(=O)OC2CCOCC2)c(O)c1)C(=O)c1c(-c2ccccc2)cc2ccccn12` [Example 11, 2-hydroxy-4-[2-oxo-2-(2-phenyl-indolizin-3-yl)-acetylamino]-benzoic acid tetrahydro-pyran-4-yl ester]: the MIC (with Aspergillus flavus (setting [3]); in assay [1] (setting [4]); in assay [2] (setting [5]); in the assay with Aspergillus niger (setting [3]); in the assay on Aspergillus terreus AT49 (setting [6]); in the assay with Aspergillus terreus AT4 (setting [7])) was under 1 mg/L throughout.
With `Cc1cc(NC(=O)C(=O)c2c(-c3ccccc3)cc3ccccn23)ccc1OCCCn1ccnc1C(C)C` [Example 12, N-{4-[3-(2-Isopropyl-imidazol-1-yl)-propoxy]-3-methyl-phenyl}-2-oxo-2-(2-phenyl-indolizin-3-yl)-acetamide], the MIC is under 1 mg/L in the assay with Aspergillus flavus (setting [3]); 1 to 10 mg/L (≈ 1.92 to 19.2 µM) in assay [1] (setting [4]); 1 to 10 mg/L (≈ 1.92 to 19.2 µM) in assay [2] (setting [5]); over 10 mg/L in the assay with Aspergillus niger (setting [3]); 1 to 10 mg/L (≈ 1.92 to 19.2 µM) with Aspergillus terreus AT49 (setting [6]); 1 to 10 mg/L (≈ 1.92 to 19.2 µM) with Aspergillus terreus AT4 (setting [7]).
As to `CC(C)c1nc(C(C)(C)c2cccc(NC(=O)C(=O)c3c(-c4ccccc4)cc4ccccn34)c2)cn1C` [Example 14, N-{3-[1-(2-Isopropyl-1-methyl-1H-imidazol-4-yl)-1-methyl-ethyl]-phenyl}-2-oxo-2-(2-phenyl-indolizin-3-yl)-acetamide], the MIC is 1 to 10 mg/L (≈ 1.98 to 19.8 µM) with Aspergillus flavus (setting [3]); over 10 mg/L in assay [1] (setting [4]); over 10 mg/L in assay [2] (setting [5]); over 10 mg/L in the assay with Aspergillus niger (setting [3]); 1 to 10 mg/L (≈ 1.98 to 19.8 µM) with Aspergillus terreus AT49 (setting [6]); 1 to 10 mg/L (≈ 1.98 to 19.8 µM) in the assay on Aspergillus terreus AT4 (setting [7]).
Consider `CC(C)c1ncc(C(C)(C)c2cccc(NC(=O)C(=O)c3c(-c4ccccc4)cc4ccccn34)c2)n1C` [Example 15, N-{3-[1-(2-Isopropyl-3-methyl-3H-imidazol-4-yl)-1-methyl-ethyl]-phenyl}-2-oxo-2-(2-phenyl-indolizin-3-yl)-acetamide], for which the MIC (in the assay on Aspergillus flavus (setting [3]); in assay [1] (setting [4]); in assay [2] (setting [5]); in the assay with Aspergillus niger (setting [3]); with Aspergillus terreus AT49 (setting [6]); in the assay with Aspergillus terreus AT4 (setting [7])) was over 10 mg/L each time.
Regarding `CC(C)c1nc(C(C)(C)c2ccc(NC(=O)C(=O)c3c(-c4ccccc4)cc4ccccn34)cc2)cn1C` [Example 16, N-{4-[1-(2-isopropyl-1-methyl-1H-imidazol-4-yl)-1-methyl-ethyl]-phenyl}-2-oxo-2-(2-phenyl-indolizin-3-yl)-acetamide], the MIC in the assay on Aspergillus flavus (setting [3]) is under 1 mg/L; in assay [1] (setting [4]), 1 to 10 mg/L (≈ 1.98 to 19.8 µM); in assay [2] (setting [5]), 1 to 10 mg/L (≈ 1.98 to 19.8 µM); in the assay with Aspergillus niger (setting [3]) it was 1 to 10 mg/L (≈ 1.98 to 19.8 µM); in the assay on Aspergillus terreus AT49 (setting [6]) it was under 1 mg/L; with Aspergillus terreus AT4 (setting [7]) it was under 1 mg/L.
Turning to `CC(C)c1ncc(C(C)(C)c2ccc(NC(=O)C(=O)c3c(-c4ccccc4)cc4ccccn34)cc2)n1C` [Example 17, N-{4-[1-(2-Isopropyl-3-methyl-3H-imidazol-4-yl)-1-methyl-ethyl]-phenyl}-2-oxo-2-(2-phenyl-indolizin-3-yl)-acetamide], the minimum inhibitory concentration (MIC) in the assay with Aspergillus flavus (setting [3]) was over 10 mg/L; in assay [1] (setting [4]), over 10 mg/L; in assay [2] (setting [5]), over 10 mg/L; in the assay on Aspergillus niger (setting [3]), 1 to 10 mg/L (≈ 1.98 to 19.8 µM); with Aspergillus terreus AT49 (setting [6]), 1 to 10 mg/L (≈ 1.98 to 19.8 µM); in the assay on Aspergillus terreus AT4 (setting [7]), 1 to 10 mg/L (≈ 1.98 to 19.8 µM).
Turning to `CC(C)c1nccn1CCOC(=O)C(C)(C)c1ccc(NC(=O)C(=O)c2c(-c3ccccc3)cc3ccccn23)cc1` [Example 18, 2-methyl-2-{4-[2-oxo-2-(2-phenyl-indolizin-3-yl)-acetylamino]-phenyl}-propionic acid 2-(2-isopropyl-imidazol-1-yl)-ethyl ester], the minimum inhibitory concentration (MIC) in the assay with Aspergillus flavus (setting [3]) was over 10 mg/L; in assay [1] (setting [4]) it was over 10 mg/L; in assay [2] (setting [5]) it was over 10 mg/L; in the assay on Aspergillus niger (setting [3]), over 10 mg/L; with Aspergillus terreus AT49 (setting [6]), 1 to 10 mg/L (≈ 1.78 to 17.8 µM); in the assay with Aspergillus terreus AT4 (setting [7]) it was over 10 mg/L.
As for `CN1CCN(c2ccc(NC(=O)C(=O)c3c(-c4ccccc4)cc4ccccn34)cc2-c2ncco2)CC1` [Example 19, N-[4-(4-methyl-piperazin-1-yl)-3-oxazol-2-yl-phenyl]-2-oxo-2-(2-phenyl-indolizin-3-yl)-acetamide], the MIC in the assay on Aspergillus flavus (setting [3]) is over 10 mg/L; in assay [1] (setting [4]), over 10 mg/L; in assay [2] (setting [5]), over 10 mg/L; in the assay with Aspergillus niger (setting [3]) it was over 10 mg/L; in the assay with Aspergillus terreus AT49 (setting [6]), 1 to 10 mg/L (≈ 1.98 to 19.8 µM); in the assay with Aspergillus terreus AT4 (setting [7]), 1 to 10 mg/L (≈ 1.98 to 19.8 µM).
For `Cc1nccn1CCCOc1ccc(NC(=O)C(=O)c2c(-c3ccccc3)cc3ccccn23)cc1C(C)C` [Example 20, N-{3-Isopropyl-4-[3-(2-methyl-imidazol-1-yl)-propoxy]-phenyl}-2-oxo-2-(2-phenyl-indolizin-3-yl)-acetamide], the MIC was under 1 mg/L in the assay with Aspergillus flavus (setting [3]); 1 to 10 mg/L (≈ 1.92 to 19.2 µM) in assay [1] (setting [4]); 1 to 10 mg/L (≈ 1.92 to 19.2 µM) in assay [2] (setting [5]); over 10 mg/L in the assay with Aspergillus niger (setting [3]); under 1 mg/L in the assay with Aspergillus terreus AT49 (setting [6]); 1 to 10 mg/L (≈ 1.92 to 19.2 µM) in the assay on Aspergillus terreus AT4 (setting [7]).
For the compound `CC(C)c1nccn1CCOC(=O)C(C)(C)c1cccc(NC(=O)C(=O)c2c(-c3ccccc3)cc3ccccn23)c1` [Example 22, 2-Methyl-2-{3-[2-oxo-2-(2-phenyl-indolizin-3-yl)-acetylamino]-phenyl}-propionic acid 2-(2-isopropyl-imidazol-1-yl)-ethyl ester], the minimum inhibitory concentration (MIC) in the assay on Aspergillus flavus (setting [3]) is 1 to 10 mg/L (≈ 1.78 to 17.8 µM); in assay [1] (setting [4]) it was over 10 mg/L; in assay [2] (setting [5]) it was over 10 mg/L; with Aspergillus niger (setting [3]), over 10 mg/L; in the assay with Aspergillus terreus AT49 (setting [6]), 1 to 10 mg/L (≈ 1.78 to 17.8 µM); in the assay with Aspergillus terreus AT4 (setting [7]), 1 to 10 mg/L (≈ 1.78 to 17.8 µM).
